Assay results published in PMC5399635 (The Journal of Pharmacology and Experimental Therapeutics, 2017).
“And” between values parts separate entries of the source, which are not always exact repeats. Equal values may be shown once. “Also recorded” adds a separate entry of the source. Read-outs that look alike come from different tables or passages of the source.

Legend:
rat κ-opioid receptor = target: T1, rat κ-opioid receptor (Rattus norvegicus, UniProt P34975); assay: Radioligand binding, κ-opioid receptor ([3H]U69593)
T1 construct: expressed in transfected cells; host or cells: CHO cells
T1 sequence (P34975 whole entry): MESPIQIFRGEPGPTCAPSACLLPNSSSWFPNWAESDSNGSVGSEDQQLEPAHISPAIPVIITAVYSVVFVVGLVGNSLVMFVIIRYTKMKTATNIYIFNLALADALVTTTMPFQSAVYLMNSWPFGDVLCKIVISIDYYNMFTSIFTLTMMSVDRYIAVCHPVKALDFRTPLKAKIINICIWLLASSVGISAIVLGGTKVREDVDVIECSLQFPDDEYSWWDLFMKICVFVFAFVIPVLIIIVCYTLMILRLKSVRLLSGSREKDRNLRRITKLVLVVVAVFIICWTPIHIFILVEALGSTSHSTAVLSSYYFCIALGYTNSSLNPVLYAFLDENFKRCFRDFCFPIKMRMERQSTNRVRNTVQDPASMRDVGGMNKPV
Procedure: Competitive inhibition studies were performed on cloned opioid receptors expressed in membranes of Chinese hamster ovary (CHO) cells and conducted in triplicate (n = 3 independent experiments).
Radioligand binding assays were performed to evaluate the ability of these agents to inhibit specific radioligand binding to cloned opioid receptor subtypes. Half-maximal inhibitory concentration (IC50), equilibrium dissociation constant for the inhibitor (Ki), and negative log of the equilibrium dissociation constant for the inhibitor (pKi) values were obtained. The receptor binding methods used for µ ([Zhang et al., 1998])-, δ ([Simonin et al., 1994])-, and κ ([Meng et al., 1993])-opioid receptors have been described previously, with the exception that 100 mM NaCl was added to the incubation buffer in the µ-opioid receptor binding assay. All assays were conducted in 200-µl volume. All assay incubations were terminated by filtration, and bound radioligand was quantitated by liquid scintillation spectrometry. The IC50 values were determined by nonlinear regression analysis of the competition curves generated with the mean of duplicate values using Hill equation curve fitting. The inhibition constants (Ki) were calculated using the Cheng-Prusoff equation. The pKi results from three independent experiments were analyzed for significant differences by one-way analysis of variance (ANOVA) followed by Bonferroni multiple comparison test.

human κ-opioid receptor = target: T2, human κ-opioid receptor (Homo sapiens, UniProt P41145); assay: [35S]GTPγS functional assay, κ-opioid receptor (HEK-293 membranes); assay type: biochemical
T2 construct: expressed in transfected cells; host or cells: HEK-293 cells
T2 sequence (P41145 whole entry): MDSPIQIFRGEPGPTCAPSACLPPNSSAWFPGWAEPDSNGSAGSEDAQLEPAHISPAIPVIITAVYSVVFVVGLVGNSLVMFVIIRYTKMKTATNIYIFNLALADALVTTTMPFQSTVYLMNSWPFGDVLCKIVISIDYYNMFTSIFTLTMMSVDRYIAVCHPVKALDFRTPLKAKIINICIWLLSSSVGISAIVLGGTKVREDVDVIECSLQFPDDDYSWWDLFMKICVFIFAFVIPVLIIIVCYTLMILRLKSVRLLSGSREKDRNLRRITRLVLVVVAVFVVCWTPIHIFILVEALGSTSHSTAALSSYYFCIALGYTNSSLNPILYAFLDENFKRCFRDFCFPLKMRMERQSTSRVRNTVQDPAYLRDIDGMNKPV
Procedure: (§1) These were single experiments conducted across a range of 12 half-log concentrations, from […], with 1 replicate per concentration; experimental conditions were as described for [^35S]GTPγS binding experiments with human recombinant µ-opioid receptors. Functional activity at κ-opioid receptors was also determined in an isolated tissue preparation from the rabbit vas deferens, using methods detailed previously ([Oka et al., 1981]).

[1] = parameters: method as in Bui et al., 2016; conditions: quinidine; ref Bui et al., 2016; cited from earlier work
κ-opioid receptors = target: T3, κ-opioid receptors (Oryctolagus cuniculus, UniProt G1SJ19); assay: Isolated field-stimulated rabbit vas deferens assay; conditions: concentrations up to 10 µM
T3 construct: isolated tissue preparation from the rabbit vas deferens; from tissue; host or cells: rabbit vas deferens
T3 sequence (G1SJ19 1-383): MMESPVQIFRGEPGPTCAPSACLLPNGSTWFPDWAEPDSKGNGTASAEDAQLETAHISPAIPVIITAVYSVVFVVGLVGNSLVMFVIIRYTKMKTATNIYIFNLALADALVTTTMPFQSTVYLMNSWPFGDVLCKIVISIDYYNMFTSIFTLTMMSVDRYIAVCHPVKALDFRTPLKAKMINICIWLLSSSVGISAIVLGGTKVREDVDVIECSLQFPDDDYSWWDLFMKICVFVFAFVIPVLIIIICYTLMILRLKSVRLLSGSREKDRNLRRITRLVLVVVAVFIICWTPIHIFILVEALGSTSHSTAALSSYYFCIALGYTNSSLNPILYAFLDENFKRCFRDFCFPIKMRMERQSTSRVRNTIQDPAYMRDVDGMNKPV
Procedure: as §1

In the case of C=CCN1CC[C@]23c4c5ccc(O)c4O[C@H]2[C@@H](OCCOCCOCCOCCOCCOCCOCCOC)CC[C@@]3(O)[C@H]1C5 [Naloxegol, naloxegol], the Ki (rat κ-opioid receptor; cloned rat κ-opioid receptors, read-out: geometric mean Ki) is reported as 8.65 nM and 8.6 nM, the Ki (rat κ-opioid receptor; no measure named, read-out: κ-opioid receptor value expressed as plasma concentration (Fig. 5) (converted)) is reported as 8.59 nM and the IC50 (human κ-opioid receptor; U69593 100 nM, read-out: IC50 (inhibition of response to U69593)) is reported as 37 nM. For the same compound, the inhibition at 100 µM (human κ-opioid receptor; at 100 µM, read-out: maximal inhibition of response to U69593) was 62%, the EC50 (human κ-opioid receptor; read-out: EC50 (agonism)) was 47 nM and the Emax (human κ-opioid receptor; read-out: maximal effect, agonism relative to U69593) was 39%. The “CNS distribution when coadministered with a strong P-gp inhibitor” value [1] was “unaffected”, the “efflux transporter substrate status” value (Caco2 cells) was “substrate for at least one apically directed efflux transporter, likely the P-gp transporter; also recorded: substrate for the P-glycoprotein transporter” and the “agonist activity at κ-opioid receptors” value (κ-opioid receptors) was “no agonist activity”.
